In ChEMBL document CHEMBL1201862, “PubChem BioAssay data set” (2004):
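Each compound was tested at five concentrations against cells in 96-well plates for 48 hours. GI50 marks 50% less growth.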 Active and inactive are the calls of the source. Cut-off read from the data, not from the text of the source: active = GI50 up to about 1.1 µM and inactive = higher.

Key:
Test in all cases: NCI tumour cell line growth inhibition, 48 h
[1] = system: 786-0
[2] = system: A549
[3] = system: ACHN
[4] = system: CAKI-1
[5] = system: HCC 2998
[6] = system: HOP-92
[7] = system: HT-29
[8] = system: IGROV-1
[9] = system: K562
[10] = system: MDA-N
[11] = system: Malme-3M
[12] = system: NCI-H23
[13] = system: NCI/ADR-RES
[14] = system: RPMI-8226
[15] = system: RXF 393
[16] = system: SF-295
[17] = system: SK-MEL-2
[18] = system: SK-MEL-5
[19] = system: TK-10
[20] = system: UACC-62

SMILES	GI50 [1]	GI50 [2]	GI50 [3]	GI50 [4]	GI50 [5]	GI50 [6]	GI50 [7]	GI50 [8]	GI50 [9]	GI50 [10]	GI50 [11]	GI50 [12]	GI50 [13]	GI50 [14]	GI50 [15]	GI50 [16]	GI50 [17]	GI50 [18]	GI50 [19]	GI50 [20]
COc1cc(/C=C/c2ccccn2)cc(OC)c1OC	> 10 µM (inactive)	> 10 µM (inactive)	> 10 µM (inactive)	> 10 µM (inactive)	> 10 µM (inactive)	> 10 µM (inactive)	> 10 µM (inactive)	> 10 µM (inactive)	> 10 µM (inactive)	> 10 µM (inactive)	> 10 µM (inactive)	> 10 µM (inactive)	> 10 µM (inactive)	> 10 µM (inactive)	> 10 µM (inactive)	> 10 µM (inactive)	> 10 µM (inactive)	> 10 µM (inactive)	> 10 µM (inactive)	> 10 µM (inactive)
COc1ccc2nc3ccc(OC)cc3c(SCCCl)c2c1	6.24 µM (inactive)	39.2 µM (inactive)	13.9 µM (inactive)	3.82 µM (inactive)	> 45.8 µM (inactive)	21.6 µM (inactive)	8.28 µM (inactive)	5.09 µM (inactive)	9.66 µM (inactive)	> 50.6 µM (inactive)	9.57 µM (inactive)	16 µM (inactive)	16.3 µM (inactive)	2.95 µM (inactive)	> 20.6 µM (inactive)	26.2 µM (inactive)	20.7 µM (inactive)	8.87 µM (inactive)	> 81.5 µM (inactive)	19.5 µM (inactive)
CCOC(=O)[C@H](O)[C@@H](O)C(=O)NCc1ccc(C(=O)c2ccccc2)cc1	> 100 µM (inactive)	> 100 µM (inactive)	> 100 µM (inactive)	> 100 µM (inactive)	> 100 µM (inactive)	> 100 µM (inactive)	> 100 µM (inactive)	> 100 µM (inactive)	> 100 µM (inactive)	> 100 µM (inactive)	> 100 µM (inactive)	> 100 µM (inactive)	> 100 µM (inactive)	> 100 µM (inactive)	> 100 µM (inactive)	> 100 µM (inactive)	> 100 µM (inactive)	> 100 µM (inactive)	> 100 µM (inactive)	> 100 µM (inactive)
NCCC(=O)N[C@H](Cc1cc(O)c(O)c(SCC(NC(=O)CC[C@H](N)C(=O)O)C(=O)NCC(=O)O)c1)C(=O)O (stereo not given in full)	> 50 µM (inactive)	> 50 µM (inactive)	> 50 µM (inactive)	> 50 µM (inactive)	> 50 µM (inactive)	> 50 µM (inactive)	> 50 µM (inactive)	> 50 µM (inactive)	> 50 µM (inactive)	> 50 µM (inactive)	> 50 µM (inactive)	> 50 µM (inactive)	> 50 µM (inactive)	> 50 µM (inactive)	> 50 µM (inactive)	> 50 µM (inactive)	> 50 µM (inactive)	> 50 µM (inactive)	> 50 µM (inactive)	> 50 µM (inactive)
COc1ccccc1C1C2=C(COC2=O)Oc2cc3c(cc21)OCO3 (stereo not given)	3.18 µM (inactive)	3.87 µM (inactive)	14 µM (inactive)	3.55 µM (inactive)	3.23 µM (inactive)	8.3 µM (inactive)	1.65 µM (inactive)	2.53 µM (inactive)	0.706 µM (active)	0.245 µM (active)	14.1 µM (inactive)	3.22 µM (inactive)	2.31 µM (inactive)	3.27 µM (inactive)	1.69 µM (inactive)	2.17 µM (inactive)	5.15 µM (inactive)	1.93 µM (inactive)	12.4 µM (inactive)	1.06 µM (active)
CCO/C=C1\SC(=S)N(c2ccc(OCC)cc2)C1=O	> 100 µM (inactive)	> 100 µM (inactive)	> 100 µM (inactive)	55.7 µM (inactive)	52.5 µM (inactive)	71.4 µM (inactive)	> 100 µM (inactive)	> 100 µM (inactive)	44.6 µM (inactive)	45.2 µM (inactive)	85.7 µM (inactive)	> 100 µM (inactive)	> 100 µM (inactive)	41.5 µM (inactive)	33.3 µM (inactive)	95.3 µM (inactive)	59.4 µM (inactive)	76.7 µM (inactive)	90.4 µM (inactive)	68.4 µM (inactive)
CC(C(=O)c1ccncc1)c1ccccn1 (stereo not given)	> 100 µM (inactive)	> 100 µM (inactive)	> 100 µM (inactive)	> 100 µM (inactive)	> 100 µM (inactive)	> 100 µM (inactive)	> 100 µM (inactive)	> 100 µM (inactive)	> 100 µM (inactive)	> 100 µM (inactive)	> 100 µM (inactive)	> 100 µM (inactive)	> 100 µM (inactive)	> 100 µM (inactive)	> 100 µM (inactive)	> 100 µM (inactive)	> 100 µM (inactive)	> 100 µM (inactive)	> 100 µM (inactive)	> 100 µM (inactive)
COc1c(CC=C(C)C)c(O)c(C(CC(C)C)c2c(O)c(CC=C(C)C)c(O)c(C(C)=O)c2O)c(O)c1C(C)=O (stereo not given)	1.63 µM (inactive)	1.8 µM (inactive)	1.1 µM (active)	1.21 µM (inactive)	0.537 µM (active)	0.191 µM (active)	0.723 µM (active)	1.7 µM (inactive)	0.29 µM (active)	2.16 µM (inactive)	0.638 µM (active)	0.275 µM (active)	0.729 µM (active)	0.419 µM (active)	0.427 µM (active)	0.521 µM (active)	0.504 µM (active)	0.482 µM (active)	1.03 µM (active)	0.527 µM (active)
NCCNCCCCCCNC(=O)c1cccc2cc3ccccc3nc12	1.36 µM (inactive)	1.7 µM (inactive)	2.28 µM (inactive)	4.78 µM (inactive)	2.14 µM (inactive)	2.24 µM (inactive)	1.59 µM (inactive)	3.9 µM (inactive)	2.06 µM (inactive)	2.7 µM (inactive)	3.94 µM (inactive)	2.07 µM (inactive)	17.9 µM (inactive)	2.01 µM (inactive)	3.95 µM (inactive)	3.6 µM (inactive)	2.87 µM (inactive)	3.61 µM (inactive)	8.51 µM (inactive)	2.01 µM (inactive)
O=C(O)c1ccc(C(=O)Nc2cccc3ccccc23)c(C(=O)O)c1	> 100 µM (inactive)	> 100 µM (inactive)	> 100 µM (inactive)	> 100 µM (inactive)	> 100 µM (inactive)	> 100 µM (inactive)	> 100 µM (inactive)	> 100 µM (inactive)	> 100 µM (inactive)	> 100 µM (inactive)	> 100 µM (inactive)	> 100 µM (inactive)	> 100 µM (inactive)	> 100 µM (inactive)	> 100 µM (inactive)	> 100 µM (inactive)	> 100 µM (inactive)	> 100 µM (inactive)	> 100 µM (inactive)	> 100 µM (inactive)
